# Where “and” joins values, the source holds several entries; their conditions need not be identical. Equal values may be shown once.
# Experiments:
# Test in all cases: ≥ marks a high value that may be exact or a test limit, other limits are often not marked, values filed in µg/mL are converted to µM
# [1] = system: Serratia marcescens ATCC 8100
# [2] = system: Staphylococcus aureus ATCC 25923
# [3] = system: Escherichia coli O18:K1:H7 Bort
# Escherichia coli ML-35 = system: Escherichia coli ML-35
# Streptococcus agalactiae = system: Streptococcus agalactiae
# [4] = system: Pseudomonas aeruginosa ATCC 27853
# Bacillus megaterium Bm11 = system: Bacillus megaterium Bm11
# [5] = system: Staphylococcus aureus Cowan 1
# [6] = system: Escherichia coli ATCC 25922
# Escherichia coli D21 = system: Escherichia coli D21
# [7] = system: Escherichia coli ATCC 10536
# Candida albicans = system: Candida albicans
# Staphylococcus aureus = system: Staphylococcus aureus
# Cryptococcus neoformans = system: Cryptococcus neoformans
# Serratia marcescens = system: Serratia marcescens
# [8] = system: Staphylococcus epidermidis ATCC 12228
# [9] = system: Salmonella enterica subsp. enterica serovar Typhimurium ATCC 14028
# [10] = system: Bacillus subtilis ATCC 6633
# [11] = system: Escherichia coli DH5alpha
# [12] = system: Staphylococcus aureus ATCC 9144
# Enterococcus faecium = system: Enterococcus faecium
# Fusarium oxysporum = system: Fusarium oxysporum
# Alternaria brassicicola = system: Alternaria brassicicola
# Neurospora crassa = system: Neurospora crassa
# Aspergillus fumigatus = system: Aspergillus fumigatus
# Beauveria bassiana = system: Beauveria bassiana
# Fusarium haematococcum = system: Fusarium haematococcum
# Trichoderma viride = system: Trichoderma viride
# Botrytis cinerea = system: Botrytis cinerea
# [13] = system: Trichophyton mentagrophytes
# Fusarium culmorum = system: Fusarium culmorum
# [14] = system: Staphylococcus aureus T4/6
# [15] = system: Escherichia coli ATCC 25726
# [16] = system: Staphylococcus aureus V4180
# [17] = system: Acinetobacter baumannii I NM8
# [18] = system: Staphylococcus aureus 274/08
# [19] = system: Staphylococcus aureus 145/08
# [20] = system: Staphylococcus aureus 127/08
# [21] = system: Staphylococcus aureus NCTC 8325
# [22] = system: Klebsiella pneumoniae ATCC 700603
# [23] = system: Candida albicans ATCC 90028
# [24] = system: Staphylococcus aureus S908
structure (smiles),measurement,setting,value
CC[C@H](C)[C@H](NC(=O)[C@H](CCCN=C(N)N)NC(=O)[C@@H](NC(=O)[C@@H](NC(=O)[C@@H]1CCCN1C(=O)[C@@H](NC(=O)[C@@H](NC(=O)[C@@H](NC(=O)[C@@H]1CCCN1C(=O)CNC(=O)[C@H](Cc1ccc(O)cc1)NC(=O)[C@H](CCCCN)NC(=O)[C@H](CCCCN)NC(=O)[C@H](Cc1c[nH]c2ccccc12)NC(=O)[C@H](C)NC(=O)[C@H](CCCN=C(N)N)NC(=O)[C@H](CC(C)C)NC(=O)[C@@H](NC(=O)[C@H](CCCCN)NC(=O)[C@H](CCCN=C(N)N)NC(=O)CNC(=O)[C@H](CC(C)C)NC(=O)[C@H](CO)NC(=O)[C@H](CCCN=C(N)N)NC(=O)[C@H](CC(C)C)NC(=O)CNC(=O)CN)[C@@H](C)CC)[C@@H](C)CC)[C@@H](C)CC)C(C)C)[C@@H](C)CC)[C@@H](C)CC)C(=O)NCC(N)=O [GGLRSLGRKILRAWKKYGPIIVPIIRIG],MIC,[1],2 µM
same,MIC,[2],2 µM
same,MIC,[3],2 µM
same,MIC,Escherichia coli ML-35,2 µM
same,MIC,Streptococcus agalactiae,2.83 µM
same,MIC,[4],2 µM and > 1 µM
same,MIC,Bacillus megaterium Bm11,2 µM
same,MIC,[5],1 µM
same,MIC,[6],2 µM
same,MIC,Escherichia coli D21,0.5 µM
same,MIC,[7],2.6 µM
same,MIC,Candida albicans,8 µM
same,MIC,Staphylococcus aureus,2.83 µM
same,MIC,Cryptococcus neoformans,4 µM
same,MIC,Serratia marcescens,8 µM
same,MIC,[8],1 µM
same,MIC,[9],1 µM
same,MIC,[10],1.6 µM
same,MIC,[11],2.4 µM
same,MIC,[12],3 µM
same,MIC,Enterococcus faecium,2.83 µM
CC[C@H](C)[C@H](NC(=O)[C@H](Cc1cnc[nH]1)NC(=O)[C@H](CCC(=O)O)NC(=O)CNC(=O)[C@H](Cc1cnc[nH]1)NC(=O)[C@H](CC(N)=O)NC(=O)[C@H](Cc1ccccc1)NC(=O)[C@@H](NC(=O)[C@H](CCCCN)NC(=O)[C@@H](NC(=O)[C@H](CCC(N)=O)NC(=O)[C@@H](NC(=O)[C@H](Cc1cnc[nH]1)NC(=O)CNC(=O)[C@H](Cc1ccccc1)NC(=O)[C@H](CC(N)=O)NC(=O)[C@@H]1CCCN1C(=O)[C@H](CC(C)C)NC(=O)[C@H](CC(=O)O)NC(=O)[C@H](CCC(=O)O)NC(=O)[C@@H](N)Cc1ccccc1)[C@@H](C)CC)C(C)C)C(C)C)C(=O)N[C@@H](Cc1cnc[nH]1)C(=O)N[C@@H](Cc1cnc[nH]1)C(=O)O [FEDLPNFGHIQVKVFNHGEHIHH],MIC,Fusarium oxysporum,12.5 µM
same,MIC,Alternaria brassicicola,6.25 µM
same,MIC,Neurospora crassa,≥ 50 µM
same,MIC,Aspergillus fumigatus,≥ 100 µM
same,MIC,Beauveria bassiana,≥ 100 µM
same,MIC,Fusarium haematococcum,6.25 µM
same,MIC,Trichoderma viride,6.25 µM
same,MIC,Botrytis cinerea,≥ 100 µM
same,MIC,[13],≥ 100 µM
same,MIC,Fusarium culmorum,12.5 µM
CC(C)C[C@H](NC(=O)[C@H](CC(C)C)NC(=O)[C@H](CC(N)=O)NC(=O)[C@H](CO)NC(=O)CNC(=O)[C@@H](NC(=O)[C@H](CCCCN)NC(=O)[C@H](CC(C)C)NC(=O)CNC(=O)[C@@H](NC(=O)[C@H](CCCCN)NC(=O)[C@H](CC(C)C)NC(=O)[C@H](CC(C)C)NC(=O)[C@H](CO)NC(=O)CNC(=O)[C@H](CC(C)C)NC(=O)[C@H](Cc1ccccc1)NC(=O)CN)[C@@H](C)O)C(C)C)C(N)=O [GFLGSLLKTGLKVGSNLL],MIC,[14],5 µM
same,MIC,[15],≥ 50 µM
same,MIC,[16],5 µM
same,MIC,[4],50 µM
same,MIC,[17],6 µM
same,MIC,[18],5 µM
same,MIC,[19],5 µM
same,MIC,[6],50 µM
same,MIC,[20],5 µM
same,MIC,[21],≥ 80 µM
same,MIC,[22],50 µM
same,MIC,[23],≥ 100 µM
same,MIC,[24],5 µM

# — DBAASP
